Consider 1 compound from paper PMC6438731, “Extrasynaptic δ‐GABAA receptors are high‐affinity muscimol receptors” (Journal of Neurochemistry, 2019).

The structures appear in SMILES notation.

Data set [1] deals with T1, α6β3δ recombinant GABAA receptor (Rattus norvegicus, UniProt P30191+P63079).
T1 construct: expressed in transfected cells; host or cells: HEK293 (ATCC CRL-1573), pRK5 plasmids, membranes
As to the kind of experiment: [^3H]muscimol binding kinetics, recombinant α6β3δ in HEK293 membranes. The source says:
Human embryonic kidney (HEK) 293 cells (ATCC Cat# CRL‐1573; RRID: CVCL_0045; a commonly misidentified cell line by ICLAC; last authenticated by STR DNA profiling in December 2018) were transfected with rat cDNAs (α1, L08490; α6, L08495; β2, X15467; β3, X15468; γ2S, L08497; δ, L08496) in pRK5 plasmids under the control of the cytomegalovirus promoter (Uusi‐Oukari et al. 2000), using the calcium phosphate precipitation method essentially as described (Lüddens and Korpi 1997). The plasmids were used in 1 : 1 and 1 : 1 : 1 ratios for transfections containing 2 [(α1 or α6) + (β2 or β3)] or 3 [(α1 or α6) + (β2 or β3) + (γ2S or δ)] different subunits, respectively (5 μg of each plasmid DNA for a 10 cm plate). Mock transfection was done using 5 μg pRK5 plasmid backbone. The cells were harvested 48 h after transfection. Culture medium was removed and the cells were detached from the plates by pipetting in ice‐cold assay buffer containing 2 mM EDTA. The cells were homogenized (Ultra Turrax, 20 s at 9500 rpm), the homogenates centrifuged at 20 000 g for 10 min at +4°C, and washed once with the same buffer. The homogenates were finally suspended in assay buffer (1 mL/plate) and either used directly to binding assays or stored frozen at −70°C.
The binding of [^3H]muscimol (5 nM) was measured in assay buffer at 22°C in a total volume of 300 μL. […] Air‐dried filters were immersed in 3 mL of Optiphase HiSafe 3 scintillation fluid (Wallac, Turku, Finland) and radioactivity determined in a Wallac model 1410 liquid scintillation counter (Wallac, Turku, Finland). […]
(§1) The tubes were mixed and incubations at 22°C were terminated at various time points (30 s – 30 min) as described above. Dissociation of [^3H]muscimol from recombinant receptors in HEK cell membranes was also measured at 0–4°C (on ice) to evaluate how fast [^3H]muscimol dissociates from receptors while washing the filter with ice‐cold assay buffer during filtration.

Data set [2] has as its target forebrain membranes of WT mice. Briefly: Saturation analysis of [^3H]muscimol binding, WT forebrain membranes. The arrangement: species or system mouse. The note with it: 0°C. Here is the method: (§2) WT and δKO forebrain and cerebellar membranes were prepared using a modification of the method of Squires and Saederup (2000) essentially as described by Uusi‐Oukari et al. (2014). […] forebrain along with midbrain region was homogenized into 10 mM Tris‐HCl, pH 8.0 buffer containing 2 mM EDTA, using an Ultra‐Turrax T25 (Janke & Kunkel IKA labortechnik) for 20 s at 9500 rpm. The homogenates were centrifuged at 20 000 g for 10 min at +4°C and the resulting pellets were washed three times by resuspension and re‐centrifugation with 10 mM Tris‐HCl, pH 8.5 buffer containing 0.2 M NaCl, and 5 mM EDTA. The resulting pellets were then suspended in ice‐cold H2O and centrifuged. The pellets were again washed three times with Tris, pH 8.5/NaCl/EDTA as described above. The resulting pellets were finally suspended in assay buffer consisting of 50 mM Tris‐base, pH adjusted to 7.4 with citric acid, and frozen at −70°C. Before a binding experiment, the suspension was thawed, centrifuged, and suspended in assay buffer.
Saturation analysis of [^3H]muscimol to WT and δKO mouse forebrain and cerebellar membranes was performed essentially as described by Uusi‐Oukari and Korpi (1989). […] The incubations were terminated as described above.

Data set [3] concerns the target forebrain membranes of WT mice. Briefly: [^3H]muscimol binding kinetics, WT forebrain membranes. The arrangement: species or system mouse. As to the method:
as §2
(§3) The binding of [^3H]muscimol (5 nM) was measured in assay buffer at 22°C in a total volume of 300 μL. Triplicate technical replicates of mouse forebrain (190–215 μg protein), cerebellar (180–210 μg protein) or HEK cell (92–132 μg protein) membranes for each time point were incubated with shaking for various times (15 s–15 min) to measure association of the binding. […] Air‐dried filters were immersed in 3 mL of Optiphase HiSafe 3 scintillation fluid (Wallac, Turku, Finland) and radioactivity determined in a Wallac model 1410 liquid scintillation counter (Wallac, Turku, Finland). […]
as §1

On the set-up of data set [4]: method as in Maggi and Enna 1979. The note with it: rat brain, ref Maggi and Enna 1979; cited from earlier work.
Data set [5] addresses cerebellar membranes of δKO mice (non‐δ‐GABAARs). Briefly: [^3H]muscimol binding kinetics, δKO cerebellar membranes. Details: species or system mouse. Here is the method:
as §2, §3, §1

The mark [6] stands for this setting: room temperature (22°C), 5 nM [^3H]muscimol.

T1 sequence (P30191 20-453): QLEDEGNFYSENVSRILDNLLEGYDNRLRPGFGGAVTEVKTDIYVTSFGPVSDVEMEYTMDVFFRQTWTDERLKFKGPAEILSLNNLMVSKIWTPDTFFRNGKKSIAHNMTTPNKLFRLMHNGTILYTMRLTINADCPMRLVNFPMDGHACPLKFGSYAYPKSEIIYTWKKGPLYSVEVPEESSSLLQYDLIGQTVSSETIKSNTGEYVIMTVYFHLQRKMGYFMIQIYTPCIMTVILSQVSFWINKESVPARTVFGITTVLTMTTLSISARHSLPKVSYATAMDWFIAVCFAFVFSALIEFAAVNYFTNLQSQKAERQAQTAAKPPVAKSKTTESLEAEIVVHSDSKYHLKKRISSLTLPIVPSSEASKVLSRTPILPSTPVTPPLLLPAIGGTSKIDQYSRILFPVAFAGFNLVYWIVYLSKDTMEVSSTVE
T1 sequence (P63079 26-473): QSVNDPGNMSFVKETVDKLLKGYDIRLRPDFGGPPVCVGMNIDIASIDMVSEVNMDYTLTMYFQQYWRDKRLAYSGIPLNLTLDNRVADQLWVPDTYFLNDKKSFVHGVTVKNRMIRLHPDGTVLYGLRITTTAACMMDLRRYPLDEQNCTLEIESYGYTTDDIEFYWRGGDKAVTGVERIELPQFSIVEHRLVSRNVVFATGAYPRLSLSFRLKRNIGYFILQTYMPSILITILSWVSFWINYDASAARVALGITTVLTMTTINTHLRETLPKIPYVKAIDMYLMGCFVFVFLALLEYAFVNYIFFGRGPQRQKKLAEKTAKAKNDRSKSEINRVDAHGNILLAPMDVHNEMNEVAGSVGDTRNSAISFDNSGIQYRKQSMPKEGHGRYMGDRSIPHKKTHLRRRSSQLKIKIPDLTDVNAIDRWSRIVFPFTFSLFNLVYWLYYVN
T1 sequence (P18506 25-449 partner): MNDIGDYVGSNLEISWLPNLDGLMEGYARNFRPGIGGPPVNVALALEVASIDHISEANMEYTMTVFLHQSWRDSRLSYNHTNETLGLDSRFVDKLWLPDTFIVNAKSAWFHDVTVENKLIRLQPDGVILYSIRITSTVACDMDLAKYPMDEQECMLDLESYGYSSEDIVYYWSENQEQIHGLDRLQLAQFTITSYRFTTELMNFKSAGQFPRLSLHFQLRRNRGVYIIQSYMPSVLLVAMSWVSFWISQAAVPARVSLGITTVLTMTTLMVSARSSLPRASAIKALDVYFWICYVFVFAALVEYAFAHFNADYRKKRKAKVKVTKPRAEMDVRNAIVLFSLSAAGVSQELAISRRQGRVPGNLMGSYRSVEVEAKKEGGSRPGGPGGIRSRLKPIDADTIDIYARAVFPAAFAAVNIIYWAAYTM

Take `NCc1cc(=O)[nH]o1` [[^3H]muscimol] [[Methylene‐^3H]muscimol]: the Kd in data set [1] (22°C, K D = koff/kon) is 0.72 nM; in data set [3] (22°C, K D = koff/kon) it was 1.6 nM; in data set [5] (22°C, K D = koff/kon), 1.4 nM. Moreover, the values for the k off in data set [1] (room temperature (22°C)), in data set [3] (room temperature (22°C)) and in data set [5] (room temperature (22°C)) were 0.13 ± 0.01 ^### min^−1, 0.00883 ± 0.00033 s⁻¹ and 1.11 ± 0.09 ^* min^−1, respectively. Further, the k on in data set [1] (setting [6]) is 1.8 ± 0.1 × 10^8, ^### M^−1 × min^−1; in data set [3] (setting [6]) it was 3.3 ± 0.2 × 10^8 M^−1 × min^−1; in data set [5] (setting [6]) it was 7.7 ± 0.2 × 10^8 ^** M^−1 × min^−1. Also, the “Apparent pKD” value in data set [2] is 8.02 ± 0.06. Moreover, the “fraction of peripherally injected [^3H]muscimol that entered the brain” value in data set [4] was “around 0.02%”.
